# Patent US11377659B2, “Short hairpin RNA (shRNA734) and use of same to positively select and eliminate genetically modified cells” (THE REGENTS OF THE UNIVERSITY OF CALIFORNIA, priority 2016, dated 2022)
# Tests used:
# [1] = humans, estimated; cited from earlier work
# [2] = tested on: Molt4CCR5, PBMC and CD34+ cells; assay: MTX mediated negative selection of HPRT knock down cells; type: cell-based, human; conditions: in vitro, 10 μM MTX; % EGFP monitored
# Excerpt: FIG. 8. Line graphs showing MTX mediated inhibition of Dihydrofolate reductase (DHFR) induced cell death in HPRT knock down cells.
# Negative selection of HPRT knock down cells by MTX is illustrated in FIG. 7, which presents a schematic illustration of MTX mediated inhibition of Dihydrofolate reductase (DHFR) induced cell death in HPRT knock down cells. […] The de novo synthesis occurs through a multi-step process and requires the contribution of four aminoacids, one PRPP, two folates and three ATP to synthesize an inosine monophosphate (IMP) molecule. HPRT catalyzes the salvage synthesis of inosine monophosphate (IMP) and guanosine monophosphate (GMP) from the purine bases hypoxanthine and guanine respectively, utilizing PRPP as a co-substrate. The HPRT defect results in the accumulation of its substrates, hypoxanthine and guanine, which are converted into uric acid by means of xanthine oxidase. Elevated APRT activity may also contribute to purine overproduction.
# Molt4CCR5 (A), PBMC (B) and CD34+ (C) cells were transduced with dual shRNA vector. The transduced cells were cultured with or without 10 μM MTX. Cells were monitored for % EGFP and given fresh media containing MTX every 3 days.
# [3] = tested on: human T-cell line, CD34+ cells and primary peripheral blood mononuclear cells (PBMC); assay: 6TG-mediated positive selection of lentiviral vector-transduced cells in vitro; type: cell-based; conditions: cultured in the presence of 6TG
# Protocol: FIG. 4. Lentiviral vector delivery of HPRT shRNA results in efficient selections of HPRT knockdown by 6TG. Selection of HPRT knockdown Molt4-CCR5, PBMC and CD34+ cell by 6TG. The shRNA vector and control vector transduced cells were cultured with or without 6TG.
# The potent and non-toxic HPRT shRNA enables 6TG-mediated positive selection of lentiviral vector-transduced human T-cell line, CD34+ cells and primary peripheral blood mononuclear cells (PBMC) in vitro. A lentivirus vector was utilized to deliver sh734 and to stably knockdown HPRT in human T cell lines, primary peripheral blood mononuclear cells and CD34+ hematopoietic stem/progenitor cells.
# Furthermore, the invention provides a combinatorial anti-HIV lentiviral vector expressing the HIV fusion inhibitor C46, and shRNAs for CCR5 and HPRT. […] Methotrexate (MTX) has been used to negatively select the transduced cells.
# (§1) The shRNA vector and control vector transduced cells were cultured with or without 6TG. […] Whole cell lysates were analyzed by Western blot after transduction at the indicated time points.
# [4] = tested on: hypoxanthine guanine phosphoribosyltransferase (HPRT); assay: HPRT knockdown in vector transduced cells (Western blot); type: cell-based, human; conditions: lentiviral vector transduced cells
# Protocol: FIG. 6. HPRT knockdown in vector transduced cells. Whole cell lysates were analyzed by Western blot after transduction at the indicated time points.
# as §1
molecule,measurement,setting,value
"Nc1nc2nc[nH]c2c(=S)[nH]1 [6TG, 6-thioguanine]",Absorption after oral administration,[1],30%
"CN(Cc1cnc2nc(N)nc(N)c2n1)c1ccc(C(=O)N[C@@H](CCC(=O)O)C(=O)O)cc1 [MTX, methotrexate]",negative selection of HPRT knock down cells by MTX,[2],negatively selected
"sh734: short hairpin RNA directed to human HPRT, coding sequence SEQ ID NO: 1 (DNA AGGATATGCCCTTGACTATTTGTCCGACATAGTCAAGGGCATATCCT; expressed or natural sequence)",positive selection of vector transduced cells by 6TG,[3],positively selected
same,HPRT knockdown,[4],efficient HPRT knockdown
